Measured values: patent publication US12202821B2, “Herbicidal compounds” (SYNGENTA CROP PROTECTION AG, priority 2019, dated 2025)

Columns and labels:
Format in all cases: in vivo
[1] = tested on: AMAPA; experiment: Pre-emergence biological efficacy; conditions: 312 h, evaluated after 13 days, read-out: damage to plant (100=total damage to plant; 0=no damage to plant), AMAPA
Protocol: (§1) Pre-Emergence Biological Efficacy
(§2) Seeds of weeds and/or crops were sown in standard soil in pots. After cultivation for one day under controlled conditions in a glasshouse (at 24/16° C., day/night; 14 hours light; 65% humidity), the plants were sprayed with an aqueous spray solution derived from the formulation of the technical active ingredient in acetone/water (50:50) solution containing 0.5% Tween 20 (polyoxyethylene sorbitan monolaurate, CAS RN 9005-64-5) to give the desired final dose of test compound.
(§3) The test plants were then grown under controlled conditions in the glasshouse (at 24/16° C., day/night; 14 hours light; 65% humidity) and watered twice daily. After 13 days the test was evaluated (100=total damage to plant; 0=no damage to plant).

[2] = tested on: ECHCG; experiment: Pre-emergence biological efficacy; conditions: Echinochloa crus-galli, 312 h, evaluated after 13 days, read-out: damage to plant (100=total damage to plant; 0=no damage to plant), ECHCG
Protocol: as §1, §2, §3

[3] = tested on: EPHHL; experiment: Pre-emergence biological efficacy; conditions: 312 h, evaluated after 13 days, read-out: damage to plant (100=total damage to plant; 0=no damage to plant), EPHHL
Protocol: as §1, §2, §3

[4] = tested on: IPOHE; experiment: Pre-emergence biological efficacy; conditions: Ipomoea hederacea, 312 h, evaluated after 13 days, read-out: damage to plant (100=total damage to plant; 0=no damage to plant), IPOHE
Protocol: as §1, §2, §3

[5] = tested on: LOLPE; experiment: Pre-emergence biological efficacy; conditions: 312 h, evaluated after 13 days, read-out: damage to plant (100=total damage to plant; 0=no damage to plant), LOLPE
Protocol: as §1, §2, §3

[6] = tested on: SETFA; experiment: Pre-emergence biological efficacy; conditions: Setaria faberi, 312 h, evaluated after 13 days, read-out: damage to plant (100=total damage to plant; 0=no damage to plant), SETFA
Protocol: as §1, §2, §3

[7] = tested on: AMAPA; experiment: Post-emergence biological efficacy; conditions: 312 h, evaluated after 13 days, read-out: damage to plant (100=total damage to plant; 0=no damage to plant), AMAPA
Protocol: (§4) Post-Emergence Biological Efficacy
as §2, with “8 days” for “one day”
(§5) The test plants were then grown on under controlled conditions in a glasshouse (at 24/16° C., day/night; 14 hours light; 65% humidity) and watered twice daily. After 13 days the test was evaluated (100=total damage to plant; 0=no damage to plant).

[8] = tested on: CHEAL; experiment: Post-emergence biological efficacy; conditions: Chenopodium album, 312 h, evaluated after 13 days, read-out: damage to plant (100=total damage to plant; 0=no damage to plant), CHEAL
Protocol: as §4
as §2, with “8 days” for “one day”
as §5

[9] = tested on: DIGSA; experiment: Post-emergence biological efficacy; conditions: Digitaria sanguinalis, 312 h, evaluated after 13 days, read-out: damage to plant (100=total damage to plant; 0=no damage to plant), DIGSA
Protocol: as §4
as §2, with “8 days” for “one day”
as §5

[10] = tested on: ECHCG; experiment: Post-emergence biological efficacy; conditions: Echinochloa crus-galli, 312 h, evaluated after 13 days, read-out: damage to plant (100=total damage to plant; 0=no damage to plant), ECHCG
Protocol: as §4
as §2, with “8 days” for “one day”
as §5

[11] = tested on: ELEIN; experiment: Post-emergence biological efficacy; conditions: 312 h, evaluated after 13 days, read-out: damage to plant (100=total damage to plant; 0=no damage to plant), ELEIN
Protocol: as §4
as §2, with “8 days” for “one day”
as §5

[12] = tested on: EPHHL; experiment: Post-emergence biological efficacy; conditions: 312 h, evaluated after 13 days, read-out: damage to plant (100=total damage to plant; 0=no damage to plant), EPHHL
Protocol: as §4
as §2, with “8 days” for “one day”
as §5

[13] = tested on: IPOHE; experiment: Post-emergence biological efficacy; conditions: Ipomoea hederacea, 312 h, evaluated after 13 days, read-out: damage to plant (100=total damage to plant; 0=no damage to plant), IPOHE
Protocol: as §4
as §2, with “8 days” for “one day”
as §5

[14] = tested on: LOLPE; experiment: Post-emergence biological efficacy; conditions: 312 h, evaluated after 13 days, read-out: damage to plant (100=total damage to plant; 0=no damage to plant), LOLPE
Protocol: as §4
as §2, with “8 days” for “one day”
as §5

[15] = tested on: SETFA; experiment: Post-emergence biological efficacy; conditions: Setaria faberi, 312 h, evaluated after 13 days, read-out: damage to plant (100=total damage to plant; 0=no damage to plant), SETFA
Protocol: as §4
as §2, with “8 days” for “one day”
as §5

| Compound | pest or weed control at 250 g/ha [1] [%] | pest or weed control at 250 g/ha [2] [%] | pest or weed control at 250 g/ha [3] [%] | pest or weed control at 250 g/ha [4] [%] | pest or weed control at 250 g/ha [5] [%] | pest or weed control at 250 g/ha [6] [%] | pest or weed control at 250 g/ha [7] [%] | pest or weed control at 250 g/ha [8] [%] | pest or weed control at 250 g/ha [9] [%] | pest or weed control at 250 g/ha [10] [%] | pest or weed control at 250 g/ha [11] [%] | pest or weed control at 250 g/ha [12] [%] | pest or weed control at 250 g/ha [13] [%] | pest or weed control at 250 g/ha [14] [%] | pest or weed control at 250 g/ha [15] [%] |
| --- | --- | --- | --- | --- | --- | --- | --- | --- | --- | --- | --- | --- | --- | --- | --- |
| COC(=O)C1(OC)CC(c2cc(-n3c(=O)n(C)c(=S)n(C)c3=O)c(F)cc2Cl)=NO1 (stereo not drawn) [Compound 311, Methyl 3-[2-chloro-5-(3,5-dimethyl-2,6-dioxo-4-thioxo-1,3,5-triazinan-1-yl)-4-fluoro-phenyl]-5-methoxy-4H-isoxazole-5-carboxylate] | 100 | 10 | 50 | 70 | 10 | 90 | 90 | 90 | 80 | 90 | 90 | 90 | 90 | 50 | 100 |
| CCOC(=O)C1(C)CC(c2cc(-n3c(=O)n(C)c(=S)n(C)c3=O)ccc2Cl)=NO1 (stereo not drawn) [Compound 36, Ethyl 3-[2-chloro-5-(3,5-dimethyl-2,6-dioxo-4-thioxo-1,3,5-triazinan-1-yl)phenyl]-5-methyl-4H-isoxazole-5-carboxylate] | 70 | 90 | 70 | 40 | 10 | 90 | 100 | 90 | 100 | 100 | 50 | 90 | 70 | 50 | 100 |
| CO/N=C(\C)C1(C)CC(c2cc(-n3c(=O)n(C)c(=S)n(C)c3=O)c(F)cc2Cl)=NO1 (stereo not drawn) [Compound 293] | 100 | 90 | 100 | 50 | 90 | 100 | 100 | 100 | 100 | 30 | 90 | 100 | 100 | 60 | 90 |
| CN(C)S(=O)(=O)NC(=O)C1(C)CC(c2cc(-n3c(=O)n(C)c(=S)n(C)c3=O)c(F)cc2Cl)=NO1 (stereo not drawn) [Compound 305, 3-[2-Chloro-5-(3,5-dimethyl-2,6-dioxo-4-thioxo-1,3,5-triazinan-1-yl)-4-fluoro-phenyl]-N-(dimethylsulfamoyl)-5-methyl-4H-isoxazole-5-carboxamide] | 100 | 30 | 60 | 80 | 30 | 90 | 100 | 100 | 100 | 100 | 100 | 100 | 100 | 100 | 100 |
